Experimental data as given in patent US20130096067A1, “DROSOPHILA TUMOR STEM CELL MODEL AND USES THEREOF” (priority 2011, published 2013).
Counter-ions that a name gives are not always drawn.

Tests used:
[1] = system: Raf-1^gof intestinal tumors; on Fold (luciferase activity, fold difference relative to DMSO controls): test concentration or dose not given here; on Log2 (fold) (luciferase activity, log2 of the fold difference relative to DMSO controls): test concentration or dose not given here
[2] = system: Raf-1^gof intestinal tumors; experiment: Luciferase screen of FDA-approved (NCI) drugs in 96-well plates, flies with Raf-1^gof intestinal tumors; format: in vivo, Drosophila; on Avg (3 + 6): test concentration or dose not given here; on Log2 (fold): test concentration or dose not given here
[3] = average of Day 3 and Day 6 fold
[4] = log2 of the Day 3 fold difference in luciferase relative to DMSO controls
[5] = luciferase activity relative to DMSO controls, single dose of drug for three days, 96-well plates
[6] = six-day protocol: single dose for three days, then another dose for three more days

Compound | Avg (3 + 6) [2, 3] | Log2 (fold) [2, 4] | Day 3 Fold [2, 5] | Day 6 Fold [2, 6] | further results
CC[C@]1(O)C[C@@H]2CN(CCc3c([nH]c4ccccc34)[C@@](C(=O)OC)(c3cc4c(cc3OC)N(C)[C@H]3[C@@](O)(C(=O)OC)[C@H](OC(C)=O)[C@]5(CC)C=CCN6CC[C@]43[C@@H]65)C2)C1 [Vinblastine sulfate] | 0.158 fold | −2.445 | 0.184 fold | 0.131 fold | Fold ([1]; Table 3 summary of hits, Screen ICCB, luciferase relative to DMSO, fed three consecutive days in vials): 0.204 fold; Log2 (fold) (luciferase activity, log2 of the fold difference relative to DMSO controls) ([1]; screen of 480 ICCB compounds in vials, compounds fed to flies with one-day old Raf-1^gof tumors, assessed three days later, esg-Gal4 luciferase): −2.290; Fold (luciferase activity, fold difference relative to DMSO controls) ([1]; screen of 480 ICCB compounds in vials, compounds fed to flies with one-day old Raf-1^gof tumors, assessed three days later, esg-Gal4 luciferase, averaged from multiple wells): 0.204
O=C1c2c(O)ccc(O)c2C(=O)c2c(NCCNCCO)ccc(NCCNCCO)c21 [Mitoxantrone] | 0.883 fold | −0.303 | 0.810 fold | 0.955 fold | –
COc1cccc2c1C(=O)c1c(O)c3c(c(O)c1C2=O)C[C@@](O)(C(C)=O)C[C@@H]3O[C@H]1C[C@H](N)[C@H](O)[C@H](C)O1 [Daunorubicin HCl] | 0.227 fold | −1.484 | 0.358 fold | 0.096 fold | –
O=P1(NCCCl)OCCCN1CCCl (centres unmarked) [Ifosfamide] | 1.004 fold | −0.026 | 0.982 fold | 1.026 fold | –
COc1cc([C@@H]2c3cc4c(cc3[C@@H](O[C@@H]3O[C@@H]5CO[C@@H](c6cccs6)O[C@H]5[C@H](O)[C@H]3O)[C@H]3COC(=O)[C@H]23)OCO4)cc(OC)c1O [Teniposide] | 0.634 fold | −0.679 | 0.625 fold | 0.642 fold | –
C/C(=C\c1csc(C)n1)[C@@H]1C[C@@H]2O[C@]2(C)CCC[C@H](C)[C@H](O)[C@@H](C)C(=O)C(C)(C)[C@@H](O)CC(=O)N1 [Ixabepilone] | 0.765 fold | −0.009 | 0.994 fold | 0.536 fold | –
Nc1ccn([C@@H]2O[C@H](CO)[C@@H](O)[C@@H]2O)c(=O)n1 [Cytarabine HCl] | 1.112 fold | 0.100 | 1.072 fold | 1.153 fold | –
CC(C)Cn1cnc2c(N)nc3ccccc3c21 [Imiquimod] | 0.888 fold | 0.086 | 1.061 fold | 0.715 fold | –
CN(N=O)C(=O)N[C@@H](C=O)[C@@H](O)[C@H](O)[C@H](O)CO [Streptozocin] | – | – | – | – | Avg (3 + 6) ([2]; in vivo): 0.943 fold; Day 3 Fold ([2]; in vivo): 1.030 fold; Day 6 Fold ([2]; in vivo): 0.856 fold; Log2 (fold) ([2]; in vivo): 0.043
CCN(CC)CCNC(=O)c1c(C)[nH]c(/C=C2\C(=O)Nc3ccc(F)cc32)c1C [Sunitinib] | 0.816 fold | −0.243 | 0.845 fold | 0.788 fold | –
C[C@@H](CN1CC(=O)NC(=O)C1)N1CC(=O)NC(=O)C1 [Dexrazoxone] | 0.599 fold | −0.428 | 0.743 fold | 0.454 fold | –
C[C@]12CC[C@@H]3c4ccc(O)cc4C[C@@H](CCCCCCCCC[S+]([O-])CCCC(F)(F)C(F)(F)F)[C@H]3[C@@H]1CC[C@@H]2O (some centres unmarked) [Fulvestrant] | 1.172 fold | −0.221 | 0.858 fold | 1.486 fold | –
O=NN(CCCl)C(=O)NCCCl [Carmustine] | 0.496 fold | – | – | – | Day 3 Fold ([2]; po, 72 h): 0.565 fold; Log2 (fold) ([2]; po, 72 h): −0.823
Nc1ncn([C@@H]2O[C@H](CO)[C@@H](O)[C@H]2O)c(=O)n1 [Azacitidine] | 1.045 fold | 0.157 | 1.115 fold | 0.976 fold | –
NCC(=O)CCC(=O)O [Aminolevulinic acid] | 0.897 fold | −0.016 | 0.989 fold | 0.805 fold | –
O=C(CCCCCCC(=O)Nc1ccccc1)NO [Vorinostat] | 0.749 fold | −0.703 | 0.614 fold | 0.883 fold | –
Clc1ccc(C(c2ccccc2Cl)C(Cl)Cl)cc1 (centres unmarked) [Mitotane] | – | – | – | – | Avg (3 + 6) ([2]; in vivo): 0.882 fold; Day 3 Fold ([2]; in vivo): 0.827 fold; Day 6 Fold ([2]; in vivo): 0.938 fold; Log2 (fold) ([2]; in vivo): −0.274
CC[C@]1(O)C[C@H]2CN(CCc3c([nH]c4ccccc34)[C@@](C(=O)OC)(c3cc4c(cc3OC)N(C=O)[C@H]3[C@@](O)(C(=O)OC)[C@H](OC(C)=O)[C@]5(CC)C=CCN6CC[C@]43[C@@H]65)C2)C1 [Vincristine sulfate] | 0.314 fold | −2.100 | 0.233 fold | 0.394 fold | –
O=c1[nH]cc(F)c(=O)[nH]1 [Fluorouracil] | 0.770 fold | −0.448 | 0.733 fold | 0.806 fold | –
Estramustine disodium phosphate | – | – | – | – | Avg (3 + 6) ([2]; in vivo): 0.922 fold; Day 3 Fold ([2]; in vivo): 0.971 fold; Day 6 Fold ([2]; in vivo): 0.872 fold; Log2 (fold) ([2]; in vivo): −0.042
Nc1nc(Cl)nc2c1ncn2[C@H]1C[C@H](O)[C@@H](CO)O1 [Cladribine] | 0.852 fold | 0.072 | 1.051 fold | 0.652 fold | –

Compound | Avg (3 + 6) [2, 3] | Log2 (fold) [2, 4] | Day 3 Fold [2, 5] | Day 6 Fold [2, 6] | further results
O=P(O)(O)C(O)(Cn1ccnc1)P(=O)(O)O [Zolendronic acid] | 0.999 fold | −0.115 | 0.923 fold | 1.076 fold | –
OC[C@H]1O[C@@H](n2cnc3c2NC=NC[C@H]3O)C[C@@H]1O [Pentostatin] | 0.951 fold | – | – | – | Day 3 Fold ([2]; po, 72 h): 1.232 fold; Log2 (fold) ([2]; po, 72 h): 0.301
C=C1C[C@@H]2[C@H](CC[C@]3(C)C(=O)CC[C@@H]23)[C@@]2(C)C=CC(=O)C=C12 [Exemestane] | 0.739 fold | −0.246 | 0.843 fold | 0.634 fold | –
COc1cc2ncnc(Nc3ccc(F)c(Cl)c3)c2cc1OCCCN1CCOCC1 [Gefitinib] | – | – | – | – | Avg (3 + 6) ([2]; in vivo): 0.886 fold
CN(C)c1nc(N(C)C)nc(N(C)C)n1 [Altretamine] | 0.611 fold | −0.625 | 0.649 fold | 0.574 fold | –
Cn1nnc2c(C(N)=O)ncn2c1=O [Temozolomide] | 1.138 fold | −0.032 | 0.978 fold | 1.298 fold | –
O=C1[O][Pt]2([NH][C@@H]3CCCC[C@H]3[NH]2)[O]C1=O [Oxaliplatin] | 1.082 fold | 0.296 | 1.227 fold | 0.936 fold | –
Oc1ncnc2[nH]ncc12 [Allopurinol] | 1.997 fold | 1.281 | 2.430 fold | 1.565 fold | –
C#Cc1cccc(Nc2ncnc3cc(OCCOC)c(OCCOC)cc23)c1 [Erlotinib HCl] | – | – | – | – | Avg (3 + 6) ([2]; in vivo): 0.986 fold; Day 3 Fold ([2]; in vivo): 1.030 fold; Day 6 Fold ([2]; in vivo): 0.942 fold; Log2 (fold) ([2]; in vivo): 0.042
Oc1ncc(N(CCCl)CCCl)c(O)n1 [Uracil mustard] | – | – | – | – | Avg (3 + 6) ([2]; in vivo): 0.869 fold; Day 3 Fold ([2]; in vivo): 0.966 fold; Day 6 Fold ([2]; in vivo): 0.773 fold; Log2 (fold) ([2]; in vivo): −0.050
COc1nc(N)nc2c1ncn2[C@@H]1O[C@H](CO)[C@@H](O)[C@@H]1O [Nelarabine] | 1.194 fold | 0.166 | 1.122 fold | 1.266 fold | –
O=C(CCBr)N1CCN(C(=O)CCBr)CC1 [Pipobroman] | 0.853 fold | −0.011 | 0.992 fold | 0.714 fold | –
Nc1nc2nc[nH]c2c(=S)[nH]1 [Thioguanine] | 1.392 fold | 0.495 | 1.409 fold | 1.375 fold | –
CCc1c2c(nc3ccc(OC(=O)N4CCC(N5CCCCC5)CC4)cc13)-c1cc3c(c(=O)n1C2)COC(=O)[C@]3(O)CC [Irinotecan HCl] | – | – | – | – | Avg (3 + 6) ([2]; in vivo): 0.705 fold; Day 3 Fold ([2]; in vivo): 0.870 fold; Day 6 Fold ([2]; in vivo): 0.541 fold; Log2 (fold) ([2]; in vivo): −0.201
O=C(c1ccc(OCCN2CCCCC2)cc1)c1c(-c2ccc(O)cc2)sc2cc(O)ccc12 [Raloxifene HCl] | 1.100 fold | 0.337 | 1.263 fold | 0.936 fold | –
O=C(O)CCCc1ccc(N(CCCl)CCCl)cc1 [Chlorambucil] | 1.022 fold | 0.175 | 1.129 fold | 0.915 fold | –
Nc1nc(F)nc2c1ncn2[C@@H]1O[C@H](CO)[C@@H](O)[C@@H]1O [Fludarabine] | 1.191 fold | – | – | – | Day 3 Fold ([2]; po, 72 h): 1.192 fold; Log2 (fold) ([2]; po, 72 h): 0.253
Nc1nc(Cl)nc2c1ncn2[C@@H]1O[C@H](CO)[C@@H](O)[C@@H]1F [Clofarabine] | 0.868 fold | −0.164 | 0.893 fold | 0.843 fold | –
N.N.[Cl][Pt][Cl] [Cisplatin] | 1.113 fold | 0.145 | 1.106 fold | 1.120 fold | –
S=c1nc[nH]c2nc[nH]c12 [Mercaptopurine] | 0.945 fold | 0.101 | 1.072 fold | 0.818 fold | –
